Experimental data published in patent US12441703B2, “Carboxamides as modulators of sodium channels” (VERTEX PHARMACEUTICALS INCORPORATED, priority 2019, dated 2025).

Biological target: human NaV 1.8 (Homo sapiens, UniProt Q9Y5Y9)
Assay: E-VIPR assay for detecting and measuring NaV inhibition properties
Assay type: cell-based
Details: E-VIPR assay conducted in the presence of human serum; HEK cells expressing truncated human NaV 1.8; read-out: IC50
Source text: Sodium ion channels are voltage-dependent proteins that can be activated by inducing membrane voltage changes by applying electric fields. The electrical stimulation instrument and methods of use, referred to as E-VIPR, are described in International Publication No. WO 2002/008748 A3 and C.-J. Huang et al. Characterization of voltage-gated sodium channel blockers by electrical stimulation and fluorescence detection of membrane potential, 24 Nature Biotech. 439-46 (2006), both of which are incorporated by reference in their entirety. The instrument comprises a microtiter plate handler, an optical system for exciting the coumarin dye while simultaneously recording the coumarin and oxonol emissions, a waveform generator, a current- or voltage-controlled amplifier, and parallel electrode pairs that are inserted into assay plate wells. Under integrated computer control, this instrument passes user-programmed electrical stimulus protocols to cells within the wells of the microtiter plate.
16-20 hours prior to running the assay on E-VIPR, HEK cells expressing a truncated form of human NaV 1.8 with full channel activity were seeded into microtiter 384-well plates, pre-coated with matrigel, at a density of 25,000 cells per well. 2.5-5% KIR2.1 Bacmam virus was added to the final cell suspension before seeding into cell plates. HEK cells were grown in Dulbecco's Modified Eagle's Medium (DMEM) supplemented with 10% FBS (Fetal Bovine Serum, qualified; Sigma #F4135), 1% NEAA (Non-Essential Amino Acids, Gibco #11140), 1% HEPES (Gibco #15630), 1% Pen-Strep (Penicillin-Streptomycin; Gibco #15140) and 5 μg/ml Blasticidin (Gibco #R210-01). Cells were expanded in vented cap cell culture flasks, with 90-95% humidity and 5% CO2.
Compound Loading Buffer (2× concentration): Na/TMA Cl Bath1 Buffer containing HS (omitted in experiments run in the absence of human serum (HS)) 50%, VABSC-1 1 mM, BSA 0.2 mg/ml (in Bath-1), KCl 9 mM, DMSO 0.75%.
• 1) To reach the final concentration in each well, 400 nL of each compound was pre-spotted (in neat DMSO) into polypropylene compound plates at 250× desired final concentration from an intermediate stock concentration of 0.075 mM, in an 11 point dose response, 3-fold dilution, resulting in a top dose of 300 nM final concentration in the cell plate. Vehicle control (neat DMSO), and positive control (an established NaV1.8 inhibitor, 25 μM final in assay in DMSO) were added manually to the outermost columns of each plate respectively. The compound plate was backfilled with 45 μL per well of Compound Loading Buffer resulting in a 250 fold dilution of compound following a 1:1 transfer of compound into the cell plate (see Step 6). Final DMSO concentration for all wells in the assay was 0.625% (0.75% DMSO was supplemented to the Compound Loading Buffer for a final DMSO concentration of 0.625%). This assay dilution protocol was adjusted to enable a higher dose range to be tested in the presence of HS or if the final assay volume was altered. • 2) Hexyl Dye Solution was prepared. • 3) Cell plates were prepared. On the day of the assay, the media was aspirated, and the cells were washed three times with 80 μL of Bath-1 buffer, maintaining 25 μL residual volume in each well. • 4) 25 μL per well of Hexyl Dye Solution was dispensed into the cell plates. The cells were incubated for 20 minutes at room temperature or ambient conditions in darkness. • 5) 45 μL per well of Compound Loading Buffer was dispensed into compound plates. • 6) The cell plates were washed three times with 80 μL per well of Bath-1 Buffer, leaving 25 µL of residual volume. Then 25 μL per well from compound plate was transferred to each cell plate. The mixture was incubated for 30 minutes at room temperature/ambient conditions. • 7) The cell plate containing compound was read on E-VIPR using the current-controlled amplifier to deliver stimulation wave pulses using a symmetrical biphasic waveform. […]

human NaV 1.8, sequence (Q9Y5Y9 whole entry, looked up): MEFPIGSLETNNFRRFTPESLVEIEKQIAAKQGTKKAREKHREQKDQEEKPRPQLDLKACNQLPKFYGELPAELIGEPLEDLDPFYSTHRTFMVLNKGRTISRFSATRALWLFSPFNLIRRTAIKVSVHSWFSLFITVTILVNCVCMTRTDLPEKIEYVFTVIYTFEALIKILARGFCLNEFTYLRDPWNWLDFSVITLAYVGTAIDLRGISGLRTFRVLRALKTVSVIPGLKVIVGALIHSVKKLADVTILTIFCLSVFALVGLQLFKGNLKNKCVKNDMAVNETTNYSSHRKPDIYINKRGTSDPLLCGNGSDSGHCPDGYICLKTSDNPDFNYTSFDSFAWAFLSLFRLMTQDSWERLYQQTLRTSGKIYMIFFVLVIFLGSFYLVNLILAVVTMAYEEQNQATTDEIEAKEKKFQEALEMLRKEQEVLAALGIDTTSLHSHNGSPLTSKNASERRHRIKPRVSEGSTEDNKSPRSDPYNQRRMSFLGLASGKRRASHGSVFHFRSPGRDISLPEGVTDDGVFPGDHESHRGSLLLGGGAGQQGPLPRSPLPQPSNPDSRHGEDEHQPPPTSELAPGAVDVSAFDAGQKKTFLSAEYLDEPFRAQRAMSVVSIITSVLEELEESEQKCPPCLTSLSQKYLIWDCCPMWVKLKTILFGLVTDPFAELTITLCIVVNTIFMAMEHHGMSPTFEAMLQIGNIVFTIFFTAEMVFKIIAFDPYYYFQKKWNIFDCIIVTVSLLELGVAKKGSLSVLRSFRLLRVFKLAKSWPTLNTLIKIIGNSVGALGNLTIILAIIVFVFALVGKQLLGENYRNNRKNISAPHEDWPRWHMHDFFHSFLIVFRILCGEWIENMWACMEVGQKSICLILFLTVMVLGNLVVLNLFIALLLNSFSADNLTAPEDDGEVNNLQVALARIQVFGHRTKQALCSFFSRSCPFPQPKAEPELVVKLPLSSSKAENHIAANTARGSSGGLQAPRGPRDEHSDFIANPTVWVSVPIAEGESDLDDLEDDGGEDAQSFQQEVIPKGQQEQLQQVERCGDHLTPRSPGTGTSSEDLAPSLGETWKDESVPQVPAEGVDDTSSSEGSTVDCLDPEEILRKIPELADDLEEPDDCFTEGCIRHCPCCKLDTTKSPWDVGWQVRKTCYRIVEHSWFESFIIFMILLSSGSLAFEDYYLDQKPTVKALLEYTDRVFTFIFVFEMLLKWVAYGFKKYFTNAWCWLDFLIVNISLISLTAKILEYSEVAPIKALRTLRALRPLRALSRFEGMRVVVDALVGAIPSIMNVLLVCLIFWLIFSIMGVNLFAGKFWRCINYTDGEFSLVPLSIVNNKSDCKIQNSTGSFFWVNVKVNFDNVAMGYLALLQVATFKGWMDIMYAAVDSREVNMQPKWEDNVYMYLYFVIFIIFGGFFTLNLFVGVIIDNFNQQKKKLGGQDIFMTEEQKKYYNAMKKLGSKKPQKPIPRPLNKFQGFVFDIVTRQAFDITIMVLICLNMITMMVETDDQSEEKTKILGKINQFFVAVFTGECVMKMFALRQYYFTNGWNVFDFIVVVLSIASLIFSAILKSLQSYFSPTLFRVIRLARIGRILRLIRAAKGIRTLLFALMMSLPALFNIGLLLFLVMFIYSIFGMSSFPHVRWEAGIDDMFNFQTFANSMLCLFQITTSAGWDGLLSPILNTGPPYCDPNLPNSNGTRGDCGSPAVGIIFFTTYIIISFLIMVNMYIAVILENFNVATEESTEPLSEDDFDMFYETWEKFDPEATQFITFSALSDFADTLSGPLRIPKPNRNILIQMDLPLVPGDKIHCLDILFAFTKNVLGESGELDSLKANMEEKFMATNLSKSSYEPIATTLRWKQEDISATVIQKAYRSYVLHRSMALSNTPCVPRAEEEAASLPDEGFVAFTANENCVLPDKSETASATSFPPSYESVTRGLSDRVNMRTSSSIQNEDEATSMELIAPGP

SMILES | IC50
CC(C)Oc1ccc(Oc2ccc(C(F)(F)F)c(F)c2C(=O)Nc2ccnc(C(N)=O)c2)c(F)c1F [Compound 18, 4-[[6-(2,3-difluoro-4-isopropoxy-phenoxy)-2-fluoro-3-(trifluoromethyl)benzoyl]amino]pyridine-2-carboxamide] | 19 nM
CCOc1ccc(Oc2ccc(C(F)(F)F)c(F)c2C(=O)Nc2ccnc(C(N)=O)c2)c(F)c1F [Compound 19, 4-[[6-(4-ethoxy-2,3-difluoro-phenoxy)-2-fluoro-3-(trifluoromethyl)benzoyl]amino]pyridine-2-carboxamide] | 57 nM
NC(=O)c1cc(NC(=O)c2c(Oc3ccc(F)cc3Cl)ccc(C(F)(F)F)c2F)ccn1 [Compound 20, 4-[[6-(2-chloro-4-fluoro-phenoxy)-2-fluoro-3-(trifluoromethyl)benzoyl]amino]pyridine-2-carboxamide] | 48 nM
COc1cc(Oc2ccc(C(F)(F)F)c(F)c2C(=O)Nc2ccnc(C(N)=O)c2)ccc1F [Compound 21, 4-[[2-fluoro-6-(4-fluoro-3-methoxy-phenoxy)-3-(trifluoromethyl)benzoyl]amino]pyridine-2-carboxamide] | 1000 nM
CCOc1ccc(Oc2ccc(C(F)(F)F)c(F)c2C(=O)Nc2ccnc(C(N)=O)c2)cc1 [Compound 23, 4-[[6-(4-ethoxyphenoxy)-2-fluoro-3-(trifluoromethyl)benzoyl]amino]pyridine-2-carboxamide] | 150 nM
NC(=O)c1cc(NC(=O)c2c(Oc3ccc(F)c(F)c3)ccc(C(F)(F)F)c2F)ccn1 [Compound 24, 4-[[6-(3,4-difluorophenoxy)-2-fluoro-3-(trifluoromethyl)benzoyl]amino]pyridine-2-carboxamide] | 200 nM
Cc1nc(C(F)(F)F)ccc1Oc1ccc(C(F)(F)F)c(F)c1C(=O)Nc1ccnc(C(N)=O)c1 [Compound 26, 4-[[2-fluoro-6-[[2-methyl-6-(trifluoromethyl)-3-pyridyl]oxy]-3-(trifluoromethyl)benzoyl]amino]pyridine-2-carboxamide] | 1300 nM
COc1ccc(Cl)cc1Oc1ccc(C(F)(F)F)c(F)c1C(=O)Nc1ccnc(C(N)=O)c1 [Compound 27, 4-[[6-(5-chloro-2-methoxy-phenoxy)-2-fluoro-3-(trifluoromethyl)benzoyl]amino]pyridine-2-carboxamide] | 170 nM
CC(C)Oc1ccc(Oc2ccc(C(F)(F)F)c(F)c2C(=O)Nc2ccnc(C(N)=O)c2)cc1F [Compound 28, 4-[[2-fluoro-6-(3-fluoro-4-isopropoxy-phenoxy)-3-(trifluoromethyl)benzoyl]amino]pyridine-2-carboxamide] | 24 nM
CCOc1ccc(Oc2ccc(C(F)(F)F)c(F)c2C(=O)Nc2ccnc(C(N)=O)c2)cc1F [Compound 29, 4-[[6-(4-ethoxy-3-fluoro-phenoxy)-2-fluoro-3-(trifluoromethyl)benzoyl]amino]pyridine-2-carboxamide] | 45 nM
NC(=O)c1cc(NC(=O)c2c(Oc3ccc(F)c4c3OCC4)ccc(C(F)(F)F)c2F)ccn1 [Compound 30, 4-[[2-fluoro-6-[(4-fluoro-2,3-dihydrobenzofuran-7-yl)oxy]-3-(trifluoromethyl)benzoyl]amino]pyridine-2-carboxamide] | 43 nM
COc1c(Oc2ccc(C(F)(F)F)c(F)c2C(=O)Nc2ccnc(C(N)=O)c2)ccc(F)c1F [Compound 31, 4-[[6-(3,4-difluoro-2-methoxy-phenoxy)-2-fluoro-3-(trifluoromethyl)benzoyl]amino]pyridine-2-carboxamide] | 9 nM
CC(C)Oc1ccc(Oc2ccc(C(F)(F)F)c(F)c2C(=O)Nc2ccnc(C(N)=O)c2)cc1Cl [Compound 33, 4-[[6-(3-chloro-4-isopropoxy-phenoxy)-2-fluoro-3-(trifluoromethyl)benzoyl]amino]pyridine-2-carboxamide] | 17 nM
COc1c(F)cccc1Oc1ccc(C(F)(F)F)c(F)c1C(=O)Nc1ccnc(C(N)=O)c1 [Compound 34, 4-[[2-fluoro-6-(3-fluoro-2-methoxy-phenoxy)-3-(trifluoromethyl)benzoyl]amino]pyridine-2-carboxamide] | 120 nM
CC(F)(F)c1cc(F)ccc1Oc1ccc(C(F)(F)F)c(F)c1C(=O)Nc1ccnc(C(N)=O)c1 [Compound 36, 4-[[6-[2-(1,1-difluoroethyl)-4-fluoro-phenoxy]-2-fluoro-3-(trifluoromethyl)benzoyl]amino]pyridine-2-carboxamide] | 180 nM
CC(C)Oc1ccc(Oc2ccc(C(F)(F)F)c(F)c2C(=O)Nc2ccnc(C(N)=O)c2)cc1 [Compound 37, 4-[[2-fluoro-6-(4-isopropoxyphenoxy)-3-(trifluoromethyl)benzoyl]amino]pyridine-2-carboxamide] | 26 nM
CCOc1ccc(Oc2ccc(C(F)(F)F)c(F)c2C(=O)Nc2ccnc(C(N)=O)c2)cc1Cl [Compound 38, 4-[[6-(3-chloro-4-ethoxy-phenoxy)-2-fluoro-3-(trifluoromethyl)benzoyl]amino]pyridine-2-carboxamide] | 43 nM
NC(=O)c1cc(NC(=O)c2c(Oc3ccc(C(F)(F)F)nc3)ccc(C(F)(F)F)c2F)ccn1 [Compound 39, 4-[[2-fluoro-3-(trifluoromethyl)-6-[[6-(trifluoromethyl)-3-pyridyl]oxy]benzoyl]amino]pyridine-2-carboxamide] | > 3000 nM

Further lines, results first:

IC50 | SMILES
> 3000 nM | NC(=O)c1cc(NC(=O)c2cc(C(F)(F)F)ccc2Oc2cccc(C3CCCCC3)c2)ccn1 [Compound 14, 4-[[2-(3-cyclohexylphenoxy)-5-(trifluoromethyl)benzoyl]amino]pyridine-2-carboxamide]
> 3000 nM | COc1ccc(Cl)cc1Oc1ccc(C(F)(F)F)cc1C(=O)Nc1ccnc(C(N)=O)c1 [Compound 15, 4-[[2-(5-chloro-2-methoxy-phenoxy)-5-(trifluoromethyl)benzoyl]amino]pyridine-2-carboxamide]
> 3000 nM | COc1cc(Oc2ccc(C(F)(F)F)cc2C(=O)Nc2ccnc(C(N)=O)c2)ccc1F [Compound 16, 4-[[2-(4-fluoro-3-methoxy-phenoxy)-5-(trifluoromethyl)benzoyl]amino]pyridine-2-carboxamide]
> 3000 nM | NC(=O)c1cc(NC(=O)c2cc(C(F)(F)F)ccc2Oc2ccc(F)cc2F)ccn1 [Compound 17, 4-[[2-(2,4-difluorophenoxy)-5-(trifluoromethyl)benzoyl]amino]pyridine-2-carboxamide]
540 nM | NC(=O)c1cc(NC(=O)c2c(Oc3ccccc3)ccc(C(F)(F)F)c2F)ccn1 [Compound 22, 4-[[2-fluoro-6-phenoxy-3-(trifluoromethyl)benzoyl]amino]pyridine-2-carboxamide]
160 nM | NC(=O)c1cc(NC(=O)c2c(Oc3ccc(F)c(Cl)c3)ccc(C(F)(F)F)c2F)ccn1 [Compound 25, 4-[[6-(3-chloro-4-fluoro-phenoxy)-2-fluoro-3-(trifluoromethyl)benzoyl]amino]pyridine-2-carboxamide]
200 nM | Cc1cc(Oc2ccc(C(F)(F)F)c(F)c2C(=O)Nc2ccnc(C(N)=O)c2)ccc1F [Compound 32, 4-[[2-fluoro-6-(4-fluoro-3-methyl-phenoxy)-3-(trifluoromethyl)benzoyl]amino]pyridine-2-carboxamide]
510 nM | NC(=O)c1cc(NC(=O)c2c(Oc3ccc(OC4CCCCC4)cc3)ccc(C(F)(F)F)c2F)ccn1 [Compound 35, 4-[[6-[4-(cyclohexoxy)phenoxy]-2-fluoro-3-(trifluoromethyl)benzoyl]amino]pyridine-2-carboxamide]
> 3000 nM | NC(=O)c1cc(NC(=O)c2c(Oc3cccc(C4CCCCC4)c3)ccc(C(F)(F)F)c2F)ccn1 [Compound 40, 4-[[6-(3-cyclohexylphenoxy)-2-fluoro-3-(trifluoromethyl)benzoyl]amino]pyridine-2-carboxamide]
